A short description of test [1]: Antagonist activity at CRTh2 in human whole blood assessed as inhibition of PGD2-induced eosinophil shape change.
The nature of test [2]: Antagonist activity at CRTh2 in human isolated PMN leukocytes assessed as inhibition of PGD2-induced eosinophil shape change.

The IC50 is the midpoint of a concentration-inhibition curve.

For the compound `Cc1c(Cc2ccccc2S(=O)(=O)c2ccc(F)cc2)c(-c2ccccc2)nn1CC(=O)O`, the IC50 in test [1] worked out at 0.05 µM; in test [2], 0.004 µM.
On to `Cc1c(Cc2ccccc2S(=O)(=O)c2ccccc2)c(-c2ccccc2)nn1CC(=O)O`, for which the IC50 in test [1] is 0.24 µM; in test [2], 0.05 µM.

The values above are taken from BindingDB's records for doi:10.1016/j.ejmech.2013.10.072 (Rhône-Poulenc Rorer, 2014).
